Drawing on ChEMBL document CHEMBL1148870, “Novel inhibitors of VEGF receptors-1 and -2 based on azole-5-carboxamide templates” (Bioorg Med Chem Lett, 2007), this text covers Activity and IC50 for 11 compounds.

Assay [1] is filed under the species Homo sapiens. Nature of the assay: Inhibition of Cdk1 at 10 uM. More on the design: scale not given: the % may be the effect or the level left.
Assay [2] concerns the target Cyclin-dependent kinase 2 (Homo sapiens) (UniProt P24941). In words: Inhibition of Cdk2 at 10 uM. More on the design: scale not given: the % may be the effect or the level left.
For assay [3], the target named is Epidermal growth factor receptor (Homo sapiens) (UniProt P00533). In words: Inhibition of ErbB1 at 10 uM. More on the design: scale not given: the % may be the effect or the level left.
Epidermal growth factor receptor (Homo sapiens), sequence (P00533 whole entry): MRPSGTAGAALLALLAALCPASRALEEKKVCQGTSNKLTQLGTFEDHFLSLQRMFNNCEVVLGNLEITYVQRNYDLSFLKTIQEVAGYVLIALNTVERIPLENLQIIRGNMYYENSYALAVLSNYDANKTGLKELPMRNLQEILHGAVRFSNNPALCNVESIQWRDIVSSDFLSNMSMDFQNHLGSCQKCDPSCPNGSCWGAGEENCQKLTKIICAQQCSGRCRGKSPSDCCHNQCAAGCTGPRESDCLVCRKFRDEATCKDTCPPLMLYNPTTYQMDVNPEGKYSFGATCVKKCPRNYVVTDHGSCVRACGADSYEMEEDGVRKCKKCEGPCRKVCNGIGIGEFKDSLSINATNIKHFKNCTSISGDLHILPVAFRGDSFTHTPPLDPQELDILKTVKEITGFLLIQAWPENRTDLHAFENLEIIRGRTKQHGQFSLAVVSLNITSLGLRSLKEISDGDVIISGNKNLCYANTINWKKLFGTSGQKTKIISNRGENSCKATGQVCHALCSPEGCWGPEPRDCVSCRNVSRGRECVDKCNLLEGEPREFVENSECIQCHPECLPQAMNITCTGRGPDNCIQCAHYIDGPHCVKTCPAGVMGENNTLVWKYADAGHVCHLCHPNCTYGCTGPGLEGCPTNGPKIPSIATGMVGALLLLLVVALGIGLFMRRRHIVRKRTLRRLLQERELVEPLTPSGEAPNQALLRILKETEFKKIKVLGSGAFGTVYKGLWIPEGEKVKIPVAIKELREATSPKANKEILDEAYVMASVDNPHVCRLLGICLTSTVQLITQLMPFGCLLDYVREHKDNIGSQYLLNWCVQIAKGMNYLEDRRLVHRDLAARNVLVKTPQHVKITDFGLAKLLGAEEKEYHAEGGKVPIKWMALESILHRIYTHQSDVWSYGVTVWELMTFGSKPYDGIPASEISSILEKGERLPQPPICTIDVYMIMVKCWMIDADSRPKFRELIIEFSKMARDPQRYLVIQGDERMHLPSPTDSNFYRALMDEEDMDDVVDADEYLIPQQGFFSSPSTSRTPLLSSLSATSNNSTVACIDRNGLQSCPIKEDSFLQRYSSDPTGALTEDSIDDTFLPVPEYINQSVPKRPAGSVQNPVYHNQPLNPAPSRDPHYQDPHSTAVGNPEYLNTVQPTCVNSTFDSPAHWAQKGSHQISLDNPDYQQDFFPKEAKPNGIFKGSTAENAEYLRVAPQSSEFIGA
The target of assay [4] is T1, Vascular endothelial growth factor receptor 2 (Homo sapiens, UniProt P35968). In words: Inhibition of VEGFR2 assessed as inhibition of phosphorylation in human 293 cells by cell-based ELISA. The format is functional, HEK293. Background: An ELISA detects its analyte on a solid surface through an enzyme-linked reagent.
Assay [5] has as its target RAC-alpha serine/threonine-protein kinase (Homo sapiens) (UniProt P31749). Nature of the assay: Inhibition of PKB/Akt at 10 uM. Also noted: scale not given: the % may be the effect or the level left.
For assay [6], the species on record is Homo sapiens. Nature of the assay: Inhibition of PKA at 10 uM. Also noted: scale not given: the % may be the effect or the level left.
Assay [7] concerns the target RAF proto-oncogene serine/threonine-protein kinase (Homo sapiens) (UniProt P04049). In words: Inhibition of Raf1 at 10 uM. Also noted: scale not given: the % may be the effect or the level left.
Assay [8] is filed under the species Homo sapiens. Nature of the assay: Inhibition of InR at 10 uM. Also noted: scale not given: the % may be the effect or the level left.
The target in assay [9] is Receptor-type tyrosine-protein kinase FLT3 (Homo sapiens) (UniProt P36888). Nature of the assay: Inhibition of Flt3 at 10 uM. More on the design: scale not given: the % may be the effect or the level left.
Assay [10] deals with Glycogen synthase kinase-3 beta (Homo sapiens) (UniProt P49841). Nature of the assay: Inhibition of GSK3-beta at 10 uM. Also noted: scale not given: the % may be the effect or the level left.
Glycogen synthase kinase-3 beta (Homo sapiens), sequence (P49841 whole entry, looked up): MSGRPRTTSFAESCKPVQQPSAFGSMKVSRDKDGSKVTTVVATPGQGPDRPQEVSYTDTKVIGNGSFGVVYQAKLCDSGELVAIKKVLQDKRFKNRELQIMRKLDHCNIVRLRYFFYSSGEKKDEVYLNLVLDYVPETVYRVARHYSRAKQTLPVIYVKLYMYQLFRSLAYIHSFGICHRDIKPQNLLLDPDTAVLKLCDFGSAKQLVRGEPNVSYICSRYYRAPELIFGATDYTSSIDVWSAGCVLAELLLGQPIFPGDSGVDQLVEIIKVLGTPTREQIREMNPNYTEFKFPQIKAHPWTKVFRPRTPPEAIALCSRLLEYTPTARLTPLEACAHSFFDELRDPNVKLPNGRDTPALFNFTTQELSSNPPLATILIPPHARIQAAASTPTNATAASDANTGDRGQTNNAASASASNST
For assay [11], the target named is Hepatocyte growth factor receptor (Homo sapiens) (UniProt P08581). In words: Inhibition of cMet at 10 uM. More on the design: scale not given: the % may be the effect or the level left.
The target in assay [12] is Vascular endothelial growth factor receptor 1 (Homo sapiens, UniProt P17948). In words: Inhibition of VEGFR1 assessed as inhibition of phosphorylation in presence of 2 uM ATP by HTRF assay. In kind it is functional. (TR-FRET usually uses a lanthanide donor and a delayed reading to cut background.)
Assay [13] has as its target Vascular endothelial growth factor receptor 3 (Homo sapiens) (UniProt P35916). Nature of the assay: Inhibition of Flt4 at 10 uM. More on the design: scale not given: the % may be the effect or the level left.
The species named for assay [14] is Homo sapiens. In words: Inhibition of bcr-Abl at 10 uM. More on the design: scale not given: the % may be the effect or the level left.
Assay [15] has as its target Fibroblast growth factor receptor 1 (Homo sapiens) (UniProt P11362). Nature of the assay: Inhibition of FGFR1 at 10 uM. More on the design: scale not given: the % may be the effect or the level left.
Assay [16] addresses T1, Vascular endothelial growth factor receptor 2. Nature of the assay: Inhibition of VEGFR2 assessed as inhibition of phosphorylation in presence of 2 uM ATP by HTRF assay. In kind it is functional.
Assay [17] addresses Receptor tyrosine-protein kinase erbB-2 (Homo sapiens) (UniProt P04626). Nature of the assay: Inhibition of ErbB2/Her2 at 10 uM. More on the design: scale not given: the % may be the effect or the level left.
For assay [18], the target named is Insulin-like growth factor 1 receptor (Homo sapiens) (UniProt P08069). In words: Inhibition of IGF1R at 10 uM. More on the design: scale not given: the % may be the effect or the level left.
Insulin-like growth factor 1 receptor (Homo sapiens), sequence (P08069 31-736 limits assumed): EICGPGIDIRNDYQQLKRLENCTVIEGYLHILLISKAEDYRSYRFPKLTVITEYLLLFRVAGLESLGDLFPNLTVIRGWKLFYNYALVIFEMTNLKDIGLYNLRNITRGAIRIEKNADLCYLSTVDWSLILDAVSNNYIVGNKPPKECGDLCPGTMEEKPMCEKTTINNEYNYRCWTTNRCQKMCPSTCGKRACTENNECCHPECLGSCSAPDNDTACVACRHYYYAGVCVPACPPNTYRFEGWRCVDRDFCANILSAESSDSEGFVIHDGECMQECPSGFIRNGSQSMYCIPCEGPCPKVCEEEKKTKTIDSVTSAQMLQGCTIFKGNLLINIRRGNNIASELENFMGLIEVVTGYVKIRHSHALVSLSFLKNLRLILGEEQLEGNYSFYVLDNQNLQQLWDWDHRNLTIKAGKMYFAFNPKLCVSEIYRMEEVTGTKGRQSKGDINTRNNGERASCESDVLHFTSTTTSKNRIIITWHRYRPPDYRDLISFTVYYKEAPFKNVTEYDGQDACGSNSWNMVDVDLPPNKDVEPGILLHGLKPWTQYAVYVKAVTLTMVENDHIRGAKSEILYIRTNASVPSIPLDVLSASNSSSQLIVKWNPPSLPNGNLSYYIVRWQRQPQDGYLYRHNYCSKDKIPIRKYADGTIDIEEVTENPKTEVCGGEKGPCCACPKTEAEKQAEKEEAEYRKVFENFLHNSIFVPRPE
Insulin-like growth factor 1 receptor (Homo sapiens), sequence (P08069 741-1367 limits assumed): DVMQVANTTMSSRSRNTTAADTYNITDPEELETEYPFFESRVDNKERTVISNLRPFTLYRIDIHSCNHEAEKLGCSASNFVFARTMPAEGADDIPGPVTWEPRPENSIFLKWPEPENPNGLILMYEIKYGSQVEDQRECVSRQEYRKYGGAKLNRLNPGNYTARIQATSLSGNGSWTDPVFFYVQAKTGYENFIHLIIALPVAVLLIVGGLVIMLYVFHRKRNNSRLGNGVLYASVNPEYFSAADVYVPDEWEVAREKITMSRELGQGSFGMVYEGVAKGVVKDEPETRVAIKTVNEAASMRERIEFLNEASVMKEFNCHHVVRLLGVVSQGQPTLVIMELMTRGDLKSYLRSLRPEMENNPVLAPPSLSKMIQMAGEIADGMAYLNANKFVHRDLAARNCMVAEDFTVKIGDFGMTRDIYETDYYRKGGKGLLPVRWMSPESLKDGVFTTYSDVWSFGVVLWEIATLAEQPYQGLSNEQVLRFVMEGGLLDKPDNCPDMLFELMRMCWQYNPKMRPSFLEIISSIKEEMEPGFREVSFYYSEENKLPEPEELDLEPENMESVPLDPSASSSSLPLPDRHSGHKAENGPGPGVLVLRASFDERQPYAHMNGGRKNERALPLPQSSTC

Receptor tyrosine-protein kinase erbB-2 (Homo sapiens), sequence (P04626 whole entry): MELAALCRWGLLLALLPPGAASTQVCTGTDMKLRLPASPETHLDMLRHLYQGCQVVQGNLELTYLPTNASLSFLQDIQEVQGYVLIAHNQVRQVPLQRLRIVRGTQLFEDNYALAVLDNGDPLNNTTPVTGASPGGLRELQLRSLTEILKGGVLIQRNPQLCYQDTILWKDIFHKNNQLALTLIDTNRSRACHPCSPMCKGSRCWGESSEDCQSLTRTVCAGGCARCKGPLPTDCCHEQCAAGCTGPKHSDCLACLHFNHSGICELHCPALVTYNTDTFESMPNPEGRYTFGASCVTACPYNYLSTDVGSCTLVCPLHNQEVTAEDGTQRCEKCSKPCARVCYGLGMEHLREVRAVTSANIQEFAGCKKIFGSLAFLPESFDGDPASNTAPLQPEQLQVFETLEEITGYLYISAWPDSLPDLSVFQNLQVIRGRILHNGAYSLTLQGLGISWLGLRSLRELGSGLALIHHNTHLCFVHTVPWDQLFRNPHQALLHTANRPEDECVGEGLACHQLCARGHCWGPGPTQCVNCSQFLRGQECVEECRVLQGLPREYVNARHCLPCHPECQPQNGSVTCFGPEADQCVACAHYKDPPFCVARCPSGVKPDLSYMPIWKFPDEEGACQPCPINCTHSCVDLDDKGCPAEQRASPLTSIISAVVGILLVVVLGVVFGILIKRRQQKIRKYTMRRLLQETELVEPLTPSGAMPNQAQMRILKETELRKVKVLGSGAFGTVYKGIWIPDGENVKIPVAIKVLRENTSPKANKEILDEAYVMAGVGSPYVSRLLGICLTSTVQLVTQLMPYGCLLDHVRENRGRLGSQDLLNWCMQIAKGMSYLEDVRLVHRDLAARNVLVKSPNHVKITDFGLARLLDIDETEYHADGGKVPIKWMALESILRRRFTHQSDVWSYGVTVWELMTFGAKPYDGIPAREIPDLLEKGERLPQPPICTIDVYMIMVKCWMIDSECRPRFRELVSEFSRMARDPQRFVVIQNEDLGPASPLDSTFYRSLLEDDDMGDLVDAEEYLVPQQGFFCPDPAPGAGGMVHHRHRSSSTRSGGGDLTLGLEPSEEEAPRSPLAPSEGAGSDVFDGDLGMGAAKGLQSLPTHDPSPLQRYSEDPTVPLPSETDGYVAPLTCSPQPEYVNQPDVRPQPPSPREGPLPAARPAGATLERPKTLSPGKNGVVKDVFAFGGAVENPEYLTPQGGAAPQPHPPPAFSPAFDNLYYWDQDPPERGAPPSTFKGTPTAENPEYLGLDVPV
Fibroblast growth factor receptor 1 (Homo sapiens), sequence (P11362 22-822 limits assumed): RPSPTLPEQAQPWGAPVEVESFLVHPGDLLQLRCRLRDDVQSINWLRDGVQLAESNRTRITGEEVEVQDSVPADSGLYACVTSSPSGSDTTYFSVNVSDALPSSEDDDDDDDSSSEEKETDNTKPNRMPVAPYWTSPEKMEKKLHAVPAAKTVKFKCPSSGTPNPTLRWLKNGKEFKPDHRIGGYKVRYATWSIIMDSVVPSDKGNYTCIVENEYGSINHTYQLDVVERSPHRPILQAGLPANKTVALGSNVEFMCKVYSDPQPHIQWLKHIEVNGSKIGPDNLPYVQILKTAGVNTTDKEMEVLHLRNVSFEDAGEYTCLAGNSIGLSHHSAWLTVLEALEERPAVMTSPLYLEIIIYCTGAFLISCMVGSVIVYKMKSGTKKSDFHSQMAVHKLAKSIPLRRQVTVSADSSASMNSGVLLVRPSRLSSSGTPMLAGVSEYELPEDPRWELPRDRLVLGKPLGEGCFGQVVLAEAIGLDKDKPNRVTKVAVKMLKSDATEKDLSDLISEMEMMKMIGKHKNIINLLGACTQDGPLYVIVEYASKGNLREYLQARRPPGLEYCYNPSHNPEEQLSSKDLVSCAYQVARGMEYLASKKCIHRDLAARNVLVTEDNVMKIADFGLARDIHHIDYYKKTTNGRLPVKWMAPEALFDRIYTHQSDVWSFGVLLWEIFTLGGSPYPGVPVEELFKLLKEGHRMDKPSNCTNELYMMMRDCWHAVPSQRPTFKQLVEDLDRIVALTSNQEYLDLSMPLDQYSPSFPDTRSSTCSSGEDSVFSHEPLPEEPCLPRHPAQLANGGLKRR

One may read the IC50 as the concentration that gives 50% inhibition. Take `O=C(Nc1ccc(Oc2ccccc2)cc1)c1ccnn1CCc1ccncc1`: the Activity is greater than 30% in the assay listed under Homo sapiens [1]; greater than 30% in assay [2]; less than 30% in assay [3]; greater than 30% in assay [5]; greater than 30% in the assay filed under Homo sapiens [6]; greater than 30% in assay [7]. Besides, the Activity (in the assay filed under Homo sapiens [8]; in assay [9]; in assay [10]; in [11]; in assay [13]; in the assay filed under Homo sapiens [14]) was greater than 30% each time. Moreover, the Activity in assay [15], in [17] and in assay [18] was greater than 30% each time. The figures for the 50% inhibitory concentration (IC50) in assay [4], in assay [12] and in [16] were greater than 10 µM, 5.25 µM and 3.22 µM, respectively.

For the compound `O=C(Nc1ccc(Cl)c(Cl)c1)c1ccnn1CCc1ccncc1`, the Activity in the assay filed under Homo sapiens [1] was greater than 30%; in assay [2], greater than 30%; in [3], less than 30%; in assay [5] it was greater than 30%; in the assay filed under Homo sapiens [6], greater than 30%; in [7], greater than 30%. Also, the Activity (in the assay listed under Homo sapiens [8]; in [9]; in assay [10]; in [11]; in [13]; in the assay filed under Homo sapiens [14]) was greater than 30% in each case. In addition, the Activity in assay [15], in [17] and in [18] was greater than 30% each time. Further, the 50% inhibitory concentration (IC50) in [4] worked out at 0.12 µM; in assay [12], 0.86 µM; in assay [16] it was 0.26 µM.

For `Cc1cc(C(=O)Nc2ccc(OC(F)(F)F)cc2)n(CCc2ccncc2)n1`, the Activity is greater than 30% in the assay listed under Homo sapiens [1]; greater than 30% in [2]; less than 30% in [3]; greater than 30% in assay [5]; greater than 30% in the assay listed under Homo sapiens [6]; greater than 30% in assay [7]. In addition, the Activity (in the assay listed under Homo sapiens [8]; in assay [9]; in assay [10]; in assay [11]; in assay [13]; in the assay listed under Homo sapiens [14]) was greater than 30% each time. In addition, the Activity in assay [15], in assay [17] and in [18] was greater than 30% throughout. The 50% inhibitory concentration (IC50) in assay [4] came to 1.34 µM; in [12], 2.25 µM; in assay [16], 1.19 µM.

With `O=C(Nc1ccc(Cl)cc1)c1nnnn1CCc1ccncc1`, the Activity in the assay listed under Homo sapiens [1] is greater than 30%; in assay [2], greater than 30%; in assay [3], less than 30%; in assay [5], greater than 30%; in the assay filed under Homo sapiens [6] it was greater than 30%; in assay [7] it was greater than 30%. Also, the Activity (in the assay filed under Homo sapiens [8]; in assay [9]; in assay [10]; in assay [11]; in [13]; in the assay listed under Homo sapiens [14]) was greater than 30% throughout. Also, the Activity in assay [15], in assay [17] and in [18] was greater than 30% throughout. The IC50 was 2.03 µM in assay [4], 0.89 µM in [12] and 0.64 µM in assay [16].

As to `O=C(Nc1ccc(OC(F)(F)F)cc1)c1cc2ccccc2n1CCc1ccncc1`, the Activity in the assay filed under Homo sapiens [1] was greater than 30%; in [2], greater than 30%; in assay [3], less than 30%; in assay [5], greater than 30%; in the assay listed under Homo sapiens [6], greater than 30%; in assay [7] it was greater than 30%. In addition, the Activity (in the assay filed under Homo sapiens [8]; in assay [9]; in assay [10]; in assay [11]; in assay [13]; in the assay listed under Homo sapiens [14]) was greater than 30% in each case. Also, the Activity in assay [15], in [17] and in [18] was greater than 30% in each case. Besides, the concentration for half-maximal inhibition (IC50) in [4], in assay [12] and in [16] was greater than 10 µM throughout.

Turning to `O=C(Nc1ccc(Cl)cc1)c1nccn1CCc1ccncc1`, the Activity in the assay listed under Homo sapiens [1] is greater than 30%; in assay [2] it was greater than 30%; in assay [3] it was less than 30%; in assay [5], greater than 30%; in the assay listed under Homo sapiens [6], greater than 30%; in assay [7], greater than 30%. In addition, the Activity (in the assay listed under Homo sapiens [8]; in assay [9]; in [10]; in assay [11]; in assay [13]; in the assay listed under Homo sapiens [14]) was greater than 30% throughout. Moreover, the Activity in assay [15], in assay [17] and in assay [18] was greater than 30% each time. In addition, the IC50 came to 1.32 µM in assay [4], 0.94 µM in assay [12] and 0.38 µM in assay [16].

On to `O=C(Nc1cccc(OC(F)(F)F)c1)c1ccnn1CCc1ccncc1`, for which the Activity in the assay filed under Homo sapiens [1] is greater than 30%; in [2] it was greater than 30%; in assay [3], less than 30%; in assay [5] it was greater than 30%; in the assay filed under Homo sapiens [6], greater than 30%; in [7], greater than 30%. Moreover, the Activity (in the assay filed under Homo sapiens [8]; in [9]; in assay [10]; in [11]; in assay [13]; in the assay filed under Homo sapiens [14]) was greater than 30% in each case. The Activity in assay [15], in assay [17] and in assay [18] was greater than 30% in each case. Moreover, the IC50 in assay [4] turned out to be 0.28 µM; in assay [12], 0.45 µM; in [16], 0.37 µM.

Regarding `O=C(Nc1ccc(Cl)cc1)c1ccnn1CCc1ccccn1`, the Activity in the assay filed under Homo sapiens [1] was greater than 30%; in assay [2] it was greater than 30%; in assay [3], less than 30%; in [5] it was greater than 30%; in the assay filed under Homo sapiens [6], greater than 30%; in [7] it was greater than 30%. Moreover, the Activity (in the assay listed under Homo sapiens [8]; in [9]; in assay [10]; in [11]; in [13]; in the assay filed under Homo sapiens [14]) was greater than 30% throughout. For the same compound, the Activity in [15], in assay [17] and in assay [18] was greater than 30% in each case. Moreover, the IC50 in assay [4], in [12] and in assay [16] was greater than 10 µM in each case.

As to `O=C(Nc1ccc(Cl)cc1)c1ccnn1CCc1ccc(F)c(F)c1`, the Activity in the assay listed under Homo sapiens [1] was greater than 30%; in assay [2], greater than 30%; in [3], less than 30%; in assay [5], greater than 30%; in the assay listed under Homo sapiens [6] it was greater than 30%; in assay [7], greater than 30%. Besides, the Activity (in the assay listed under Homo sapiens [8]; in assay [9]; in assay [10]; in assay [11]; in assay [13]; in the assay filed under Homo sapiens [14]) was greater than 30% each time. Further, the Activity in assay [15], in assay [17] and in assay [18] was greater than 30% in each case. In addition, the IC50 in assay [4], in assay [12] and in assay [16] was greater than 10 µM each time.

`COc1ccc(CCn2nccc2C(=O)Nc2ccc(Cl)cc2)cc1OC`: the Activity in the assay filed under Homo sapiens [1] is greater than 30%; in assay [2] it was greater than 30%; in assay [3], less than 30%; in assay [5] it was greater than 30%; in the assay listed under Homo sapiens [6], greater than 30%; in assay [7], greater than 30%. For the same compound, the Activity (in the assay filed under Homo sapiens [8]; in [9]; in assay [10]; in [11]; in assay [13]; in the assay listed under Homo sapiens [14]) was greater than 30% in each case. Further, the Activity in assay [15], in assay [17] and in assay [18] was greater than 30% throughout. Moreover, the half-inhibitory concentration (IC50) in [4], in assay [12] and in assay [16] was greater than 10 µM in each case.

With `O=C(Nc1ccc(C(F)(F)F)c(Cl)c1)c1nc2ccccc2n1CCc1ccncc1`, the Activity is greater than 30% in the assay listed under Homo sapiens [1]; greater than 30% in assay [2]; less than 30% in assay [3]; greater than 30% in [5]; greater than 30% in the assay listed under Homo sapiens [6]; greater than 30% in [7]. In addition, the Activity (in the assay filed under Homo sapiens [8]; in assay [9]; in assay [10]; in [11]; in assay [13]; in the assay listed under Homo sapiens [14]) was greater than 30% in each case. Further, the Activity in assay [15], in [17] and in assay [18] was greater than 30% each time. Besides, the IC50 in [4], in [12] and in assay [16] was greater than 10 µM each time.
